Results reported in the supplement of paper PMC11061612.

Experiments:
[1] = compound: Cc1cc2ncnn2cc1Nc1ncc2c(n1)n(C1CCOCC1)c(=O)n2C [AZD7648]; details: max 10 µM
Procedure, shortened: (§1)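 Cancer cell lines were dosed for 72 hours (final DMSO typically 0.2%) after 24 hours at 37°C and 5% CO2 in 1536-well plates containing 7.5 μl DMEM/F12 or RPMI with 10% FBS. Viability came from CellTiter-Glo 2.0 luminescence, scaled between blank-well and DMSO-well means, and dose responses were fitted to a two-parameter logistic curve with a non-linear mixed effects model. The single-agent IC50 was obtained from this fit.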

[2] = compound: O=c1[nH]cc(F)c(=O)[nH]1 [5-Fluorouracil]; details: max 20 µM
Procedure, shortened: as §1

[3] = compound: CC(C)n1c(=O)n(C)c2cnc3cc(F)c(-c4ccc(OCCCN5CCCCC5)nc4)cc3c21 [AZD1390]; details: max 0.3 µM
Procedure, shortened: as §1

[4] = compound: CC1=C(C(=CC=C1)Cl)NC(=O)C2=CN=C(S2)NC3=CC(=NC(=N3)C)N4CCN(CC4)CCO [Dasatinib]; details: max 2 µM
Procedure, shortened: as §1

[5] = compound: COc1nnc2ccc(N3CCC(c4ccc(OCCN5CCN(C)C(=O)[C@H]5C)cc4)CC3)nn12 [AZD5153]; details: max 1 µM
Procedure, shortened: as §1

[6] = compound: COc1cccc(OCCCN)c1-c1cc(Nc2cnc(C#N)cn2)n[nH]1 [Prexasertib]; details: max 1 µM
Procedure, shortened: as §1

[7] = compound: CN(C)CCCOc1ccc(-c2ccc3ncc4c(c3c2)n(C2CCOCC2)c(=O)n4C)cn1 [AZD0156]; details: max 3 µM
Procedure, shortened: as §1

[8] = compound: COc1cc2ncnc(Nc3ccc(F)c(Cl)c3)c2cc1OCCCN1CCOCC1 [Gefitinib]; details: max 10 µM
Procedure, shortened: as §1

[9] = compound: CCN(CCO)CCCOc1ccc2c(Nc3cc(CC(=O)Nc4cccc(F)c4)[nH]n3)ncnc2c1 [AZD2811]; details: max 1 µM
Procedure, shortened: as §1

[10] = compound: Cn1cnc2c(F)c(Nc3ccc(Br)cc3Cl)c(C(=O)NOCCO)cc21 [Selumetinib]; details: max 10 µM
Procedure, shortened: as §1

[11] = compound: CS(=O)(=O)CCNCc1ccc(-c2ccc3ncnc(Nc4ccc(OCc5cccc(F)c5)c(Cl)c4)c3c2)o1 [Lapatinib]; details: max 10 µM
Procedure, shortened: as §1

[12] = compound: CC(=O)Nc1cccc(-n2c(=O)n(C3CC3)c(=O)c3c(Nc4ccc(I)cc4F)n(C)c(=O)c(C)c32)c1 [Trametinib]; details: max 1 µM
Procedure, shortened: as §1

[13] = compound: C1CC(C1)(C(=O)[O-])C(=O)[O-].N.N.[Pt+2] [Carboplatin]; details: max 10 µM
Procedure, shortened: as §1

[14] = compound: C=CCn1c(=O)c2cnc(Nc3ccc(N4CCN(C)CC4)cc3)nc2n1-c1cccc(C(C)(C)O)n1 [AZD1775]; details: max 3 µM
Procedure, shortened: as §1

[15] = compound: Nc1ccn([C@@H]2O[C@H](CO)[C@@H](O)C2(F)F)c(=O)n1 [Gemcitabine]; details: max 0.3 µM
Procedure, shortened: as §1

[16] = compound: CN(CC[C@H](CSC1=CC=CC=C1)NC2=C(C=C(C=C2)S(=O)(=O)NC(=O)C3=CC=C(C=C3)N4CCC(CC4)[C@H](C5=CC=CC=C5C6=CC=C(C=C6)Cl)O)S(=O)(=O)C(F)(F)F)CCO [AZD4320]; details: max 1 µM
Procedure, shortened: as §1

[17] = compound: COc1cccc2c1C(=O)c1c(O)c3c(c(O)c1C2=O)C[C@@](O)(C(=O)CO)C[C@@H]3O[C@H]1C[C@H](N)[C@H](O)[C@H](C)O1 [Doxorubicin]; details: max 1 µM
Procedure, shortened: as §1

[18] = compound: C1CN(CCC1(C(=O)N[C@@H](CCO)C2=CC=C(C=C2)Cl)N)C3=NC=NC4=C3C=CN4 [AZD5363]; details: max 10 µM
Procedure, shortened: as §1

[19] = compound: COc1cc(Nc2ncc3c(n2)-c2ccc(Cl)cc2C(c2c(F)cccc2OC)=NC3)ccc1C(=O)O [Alisertib]; details: max 10 µM
Procedure, shortened: as §1

[20] = compound: C[C@@H](Oc1cc(-c2cnn(C3CCNCC3)c2)cnc1N)c1c(Cl)ccc(F)c1Cl [Crizotinib]; details: max 10 µM
Procedure, shortened: as §1

[21] = compound: C[C@@H](Nc1cc(F)cc(F)c1)c1cc(C(=O)N(C)C)cc2c(=O)cc(N3CCOCC3)oc12 [AZD8186]; details: max 10 µM
Procedure, shortened: as §1

[22] = compound: O=C(c1cc(Cc2n[nH]c(=O)c3ccccc23)ccc1F)N1CCN(C(=O)C2CC2)CC1 [Olaparib]; details: max 10 µM
Procedure, shortened: as §1

[23] = compound: CCc1c2c(nc3ccc(O)cc13)-c1cc3c(c(=O)n1C2)COC(=O)[C@]3(O)CC [SN-38]; details: max 0.3 µM
Procedure, shortened: as §1

[24] = compound: NC1(c2ccc(-c3nc4ccn5c(=O)[nH]nc5c4cc3-c3ccccc3)cc2)CCC1 [MK-2206]; details: max 10 µM
Procedure, shortened: as §1

[25] = compound: CC1=CN2[C@@H](C1)C=NC3=CC(=C(C=C3C2=O)OC)OCCCCCOC4=C(C=C5C(=C4)N=C[C@@H]6CC(=CN6C5=O)C)OC [SG3199]; details: max 0.001 µM
Procedure, shortened: as §1

[26] = compound: Cc1c2c(nn1C)CSCc1cc(n(C)n1)CSc1cc(c3ccccc3c1)OCCCc1c(C(=O)O)n(C)c3c-2c(Cl)ccc13 [AZD5991]; details: max 1 µM
Procedure, shortened: as §1

[27] = compound: C[C@@H](c1ccc2nccn2c1)n1nnc2ncc(-c3cnn(C)c3)nc21 [Savolitinib]; details: max 1 µM
Procedure, shortened: as §1

[28] = compound: COc1cc([C@@H]2c3cc4c(cc3[C@@H](O[C@@H]3O[C@@H]5CO[C@@H](C)O[C@H]5[C@H](O)[C@H]3O)[C@H]3COC(=O)[C@H]23)OCO4)cc(OC)c1O [Etoposide]; details: max 10 µM
Procedure, shortened: as §1

[29] = compound: CC(=O)c1c(C)c2cnc(Nc3ccc(N4CCNCC4)cn3)nc2n(C2CCCC2)c1=O [Palbociclib]; details: max 10 µM
Procedure, shortened: as §1

[30] = compound: N#Cc1cnc(Nc2cc(NC[C@H]3CNCCO3)c(C(F)(F)F)cn2)cn1 [SRA737]; details: max 10 µM
Procedure, shortened: as §1

[31] = compound: CC1(C)CCC(CN2CCN(c3ccc(C(=O)NS(=O)(=O)c4ccc(NCC5CCOCC5)c([N+](=O)[O-])c4)c(Oc4cnc5[nH]ccc5c4)c3)CC2)=C(c2ccc(Cl)cc2)C1 [Venetoclax]; details: max 1 µM
Procedure, shortened: as §1

[32] = compound: Cc1nc(-c2cn3c(n2)-c2ccc(-c4cnn(C(C)(C)C(N)=O)c4)cc2OCC3)n(C(C)C)n1 [Taselisib]; details: max 10 µM
Procedure, shortened: as §1

[33] = compound: O=C(Nc1ccc2[nH]nc(-c3ccncc3)c2c1)[C@@H]1CCN(CC(=O)N2CCN(c3ccc(-c4ncccn4)cc3)CC2)C1; details: max 5 µM
Procedure, shortened: as §1

[34] = compound: C[C@@H]1COCCN1C2=NC(=NC(=C2)C3(CC3)[S@](=N)(=O)C)C4=C5C=CNC5=NC=C4 [AZD6738]; details: max 10 µM
Procedure, shortened: as §1

[35] = compound: CC(=O)O[C@H]1C(=O)[C@@]2(C)[C@H]([C@H](OC(=O)c3ccccc3)[C@]3(O)C[C@H](OC(=O)[C@H](O)[C@@H](NC(=O)c4ccccc4)c4ccccc4)C(C)=C1C3(C)C)[C@]1(OC(C)=O)CO[C@@H]1C[C@@H]2O [Paclitaxel]; details: max 3 µM
Procedure, shortened: as §1

Cell Line | IC50, cell viability 72 h [1] | IC50, cell viability 72 h [2] | IC50, cell viability 72 h [3] | IC50, cell viability 72 h [4] | IC50, cell viability 72 h [5] | IC50, cell viability 72 h [6] | IC50, cell viability 72 h [7] | IC50, cell viability 72 h [8] | IC50, cell viability 72 h [9] | IC50, cell viability 72 h [10] | IC50, cell viability 72 h [11] | IC50, cell viability 72 h [12] | IC50, cell viability 72 h [13] | IC50, cell viability 72 h [14] | IC50, cell viability 72 h [15] | IC50, cell viability 72 h [16] | IC50, cell viability 72 h [17] | IC50, cell viability 72 h [18] | IC50, cell viability 72 h [19] | IC50, cell viability 72 h [20] | IC50, cell viability 72 h [21] | IC50, cell viability 72 h [22] | IC50, cell viability 72 h [23] | IC50, cell viability 72 h [24] | IC50, cell viability 72 h [25] | IC50, cell viability 72 h [26] | IC50, cell viability 72 h [27] | IC50, cell viability 72 h [28] | IC50, cell viability 72 h [29] | IC50, cell viability 72 h [30] | IC50, cell viability 72 h [31] | IC50, cell viability 72 h [32] | IC50, cell viability 72 h [33] | IC50, cell viability 72 h [34] | IC50, cell viability 72 h [35]
SW948 (Colorectal Carcinoma) | > 10 µM | > 20 µM | > 0.3 µM | > 2 µM | 0.918 µM | 0.136 µM | > 3 µM | > 10 µM | > 1 µM | 1.08 µM | > 10 µM | 0.0352 µM | > 10 µM | 1.39 µM | > 0.3 µM | > 1 µM | > 1 µM | 6.29 µM | 0.0444 µM | 5.44 µM | > 10 µM | > 10 µM | > 0.3 µM | > 10 µM | > 0.001 µM | > 1 µM | > 1 µM | > 10 µM | > 10 µM | > 10 µM | > 1 µM | 0.343 µM | 2.47 µM | > 10 µM | 0.0299 µM
Saos-2 (Osteosarcoma) | > 10 µM | > 20 µM | > 0.3 µM | > 2 µM | 0.887 µM | 0.102 µM | > 3 µM | > 10 µM | 0.971 µM | > 10 µM | > 10 µM | > 1 µM | > 10 µM | 1.23 µM | 0.0364 µM | > 1 µM | 0.556 µM | > 10 µM | 9.26 µM | 5.11 µM | > 10 µM | > 10 µM | 0.0109 µM | > 10 µM | > 0.001 µM | > 1 µM | > 1 µM | 3.65 µM | > 10 µM | > 10 µM | > 1 µM | 3.21 µM | > 5 µM | > 10 µM | 0.0446 µM
WSU-DLCL2 (B-Cell Non-Hodgkin's Lymphoma) | > 10 µM | > 20 µM | > 0.3 µM | > 2 µM | 0.0559 µM | 0.0188 µM | 2.15 µM | > 10 µM | > 1 µM | > 10 µM | > 10 µM | > 1 µM | > 10 µM | 0.531 µM | 0.0065 µM | 0.794 µM | 0.0539 µM | 0.253 µM | 1.64 µM | 8.08 µM | 5.81 µM | > 10 µM | 0.00596 µM | 1.67 µM | > 0.001 µM | 0.137 µM | > 1 µM | 0.73 µM | 7.44 µM | > 10 µM | > 1 µM | 2.7 µM | > 5 µM | 2.69 µM | 0.00448 µM
YT (Other Blood Carcinomas) | 6.93 µM | 0.808 µM | > 0.3 µM | > 2 µM | 0.196 µM | 0.0268 µM | > 3 µM | > 10 µM | > 1 µM | > 10 µM | > 10 µM | > 1 µM | > 10 µM | 0.442 µM | 0.0365 µM | > 1 µM | 0.511 µM | > 10 µM | > 10 µM | 8.37 µM | > 10 µM | > 10 µM | 0.00413 µM | > 10 µM | > 0.001 µM | 0.0494 µM | > 1 µM | 0.374 µM | 4.04 µM | 4.81 µM | > 1 µM | 1.79 µM | > 5 µM | 3.17 µM | 0.0465 µM
